In patent publication US6495529B1 (Warner-Lambert Company, priority 1998, dated 2002):

Tests used:
Swiss-Webster mice = conditions: mice pretreated with 0.01, 0.1 or 1.0 mg/kg triprolidine
Method: The mice were immediately placed in the activity testing chamber for a 2-h session. Doses of the test compound were selected from the ascending or descending time of the dose-effect curve determined from the compound-alone studies. Eight mice were tested for each triprolidine/sympathomimetic combination.
Time course data for each compound were considered in 2-way analyses of variance with dose as a between-group and time as a within-group factor. The dose-effect data were considered in 1-way analyses of variance, and planned individual comparisons were conduced between each dose and the saline control group. Interaction studies were considered in 2-way analyses of variance, with Pretreatment and Test dose as the factors.

[1] = tested on: New Zealand white rabbits; experiment: Pupil diameter / mydriasis after topical application to rabbit eye
α2-receptors = experiment: ALPHA-2 binding, p-125Iodoclonidine, canine brain (frontal cortex) membranes; design: species or system dog
Method: Membranes of mongrel dogs were harvested from the canine frontal cortex and prepared as described for lung except that the final membrane protein concentration was adjusted to 0.5 mg/ml.
Nonspecific binding was determined in separate incubations in the presence of 10 μM phentolamine. The final concentration of p-iodoclonidine was 44-45 pM in competition studies and between 50 pM and 10 nM in saturation experiments. Bound and free […] were separated and the bound quantitated as described above for the ICYP assays.
All data were analyzed with the aid of microcomputer nonlinear curve fitting programs (PRISM 2.0, Graphpad Software, San Diego Calif.).
The receptors resident in each of the three membrane preparations were evaluated by standard saturation analysis following the addition of increasing concentrations of the appropriate radioligand.
The radio ligand added for subsequent α2-displacement assays was adjusted to evaluate only the high affinity receptor. Contributions from p-iodoclonidine binding to imidazoline receptors in the α2-displacement assay were evaluated with epinephrine.

[2] = drug 1% topical, drug treated eye (T), 0.5 hr
[3] = drug 1% topical, drug treated eye (T), 1 hr
[4] = drug 1% topical, drug treated eye (T), 3 hr
[5] = drug 1% topical, drug treated eye (T), 5 hr
[6] = drug 1% topical, drug treated eye (T), −0.5 hr (pre-treatment)
[7] = drug 1% topical, drug treated eye (T), −1 hr (pre-treatment)
[8] = drug 1% topical, untreated contralateral eye (U), 0.5 hr
[9] = drug 1% topical, untreated contralateral eye (U), 1 hr
[10] = drug 1% topical, untreated contralateral eye (U), 3 hr
[11] = drug 1% topical, untreated contralateral eye (U), 5 hr
[12] = drug 1% topical, untreated contralateral eye (U), −0.5 hr (pre-treatment)
[13] = drug 1% topical, untreated contralateral eye (U), −1 hr (pre-treatment), mean ± S.E.
[14] = drug 2% topical, drug treated eye (T), 0.5 hr
[15] = drug 2% topical, drug treated eye (T), 1 hr
[16] = drug 2% topical, drug treated eye (T), 3 hr
[17] = drug 2% topical, drug treated eye (T), 5 hr
[18] = drug 2% topical, drug treated eye (T), −0.5 hr (pre-treatment)
[19] = drug 2% topical, drug treated eye (T), −1 hr (pre-treatment)
[20] = drug 2% topical, untreated contralateral eye (U), 0.5 hr
[21] = drug 2% topical, untreated contralateral eye (U), 1 hr
[22] = drug 2% topical, untreated contralateral eye (U), 3 hr
[23] = drug 2% topical, untreated contralateral eye (U), 5 hr
[24] = drug 2% topical, untreated contralateral eye (U), −0.5 hr (pre-treatment)
[25] = drug 2% topical, untreated contralateral eye (U), −1 hr (pre-treatment)

SMILES	Mydriatic Responses, TREATED EYE ([1]; 1% solution)	Mydriatic Responses, UNTREATED EYE ([1]; 1% solution)	Mydriatic Responses, TREATED EYE ([1]; 2% solution)	Mydriatic Responses, UNTREATED EYE ([1]; 2% solution)	Pupil Diameter [1, 2] [mm]	Pupil Diameter [1, 3] [mm]	Pupil Diameter [1, 4] [mm]	Pupil Diameter [1, 5] [mm]	Pupil Diameter [1, 6] [mm]	Pupil Diameter [1, 7] [mm]	Pupil Diameter [1, 8] [mm]	Pupil Diameter [1, 9] [mm]	Pupil Diameter [1, 10] [mm]	Pupil Diameter [1, 11] [mm]	Pupil Diameter [1, 12] [mm]	Pupil Diameter [1, 13] [mm]	Pupil Diameter [1, 14] [mm]	Pupil Diameter [1, 15] [mm]	Pupil Diameter [1, 16] [mm]	Pupil Diameter [1, 17] [mm]	other results
CNC[C@H](O)c1cccc(O)c1 [(−)-phenylephrine]	++ (++ = 2-4 mm change)	0	+++ (+++ >4 mm change)	+++ (+++ >4 mm change)	7 ± 0.4	9 ± 0.4	9 ± 0.4	9 ± 0.4	6 ± 0.4	6 ± 0.4	6 ± 0.4	6 ± 0.4	6 ± 0.4	6 ± 0.4	6 ± 0.4	6 ± 0.4	12 ± 0.2	12 ± 0.2	12 ± 0.2	12 ± 0.2	modification of stimulant or depressant effects by triprolidine pretreatment (Swiss-Webster mice): did not show significant modification of stimulant or depressant effects; Pupil Diameter [1, 18]: 6 ± 0.2 mm; Pupil Diameter [1, 19]: 6 ± 0.2 mm; Pupil Diameter [1, 20]: 12 ± 0.2 mm; Pupil Diameter [1, 21]: 12 ± 0.2 mm; Pupil Diameter [1, 22]: 12 ± 0.2 mm; Pupil Diameter [1, 23]: 12 ± 0.2 mm; Pupil Diameter [1, 24]: 6 ± 0.2 mm; Pupil Diameter [1, 25]: 6 ± 0.2 mm
CN[C@@H](C)[C@H](O)c1ccccc1 [(−)-ephedrine]	0	0	+++ (+++ >4 mm change)	+++ (+++ >4 mm change)	6 ± 0.4	6 ± 0.4	6 ± 0.4	6 ± 0.4	6 ± 0.4	6 ± 0.4	6 ± 0.4	6 ± 0.4	6 ± 0.4	6 ± 0.4	6 ± 0.4	6 ± 0.4	9 ± 0.2	9 ± 0.2	9 ± 0.2	9 ± 0.2	Ki (α2-receptors): […]; IC50 (α2-receptors; Table 4, no unit in table, IC50 defined in μM, read-out: Alpha-2 IC50): […]; Pupil Diameter [1, 18]: 5 ± 0.2 mm; Pupil Diameter [1, 19]: 5 ± 0.2 mm; Pupil Diameter [1, 20]: 9 ± 0.2 mm; Pupil Diameter [1, 21]: 9 ± 0.2 mm; Pupil Diameter [1, 22]: 9 ± 0.2 mm; Pupil Diameter [1, 23]: 9 ± 0.2 mm; Pupil Diameter [1, 24]: 5 ± 0.2 mm; Pupil Diameter [1, 25]: 5 ± 0.2 mm; mydriasis / effect on pupil diameter (in words) ([1]; topical, rabbit): had no effect on pupil diameter
